Earlier results as cited in patent US8329142B2, “Compounds, compositions and methods for medical imaging of Parkinson's disease” (priority 2003, dated 2012).

How the values were obtained:
Aβ(1-28) = Aβ(1-28) (Homo sapiens, UniProt P05067); details: computer-based molecular modeling
Aβ(1-40) [1] = target: T1, Aβ(1-40) (Homo sapiens, UniProt P05067)
Aβ(1-40) [2] = target: T1, Aβ(1-40); details: in vitro
[3] = intra-venous (IV) and oral administration

T1 sequence (P05067 672-711 limits assumed): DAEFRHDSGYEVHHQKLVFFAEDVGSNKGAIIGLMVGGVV
Aβ(1-28), sequence (P05067 672-699): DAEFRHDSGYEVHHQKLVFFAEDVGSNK

In the case of `[12CH3][14N+]([12CH3])([12CH3])CC[16O][31P](=[16O])([16OH])[16O]CC([16OH])C[16OH]` (stereo not shown) [GPC, glycerophosphocholine], the “binding to Aβ(1-28) peptide site (pocket Lys28, Asp23, Lys16)” value (Aβ(1-28)) is listed as “bind specifically”, the “reduction of α-helical content of Aβ(1-40)” value (Aβ(1-40) [1]) is listed as 15% and the “enhancement of Aβ(1-40) aggregation” value (Aβ(1-40) [2]) is listed as “over 400%”. For the same molecule, the brain penetration [3] was “enters the brain”.
